System: rat adjuvant arthritis model
Assay: Anti-arthritic action in rat adjuvant arthritis model (footpad volume increase suppression)
Assay type: in vivo
Conditions: female Lewis rats, oral once a day, Compound No. 1 0.1 mg/kg, Formula (II) 10.0 mg/kg; for Footpad volume increase suppression ratio (%) After 11 days: right hind leg volume on day 11 after start of administration; for Footpad volume increase suppression ratio (%) After 18 days: right hind leg volume on day 18 after start of administration
Protocol: A rat adjuvant arthritis model developing arthritis that is similar to human rheumatoid arthritis was used, and effect of the pharmaceutical composition according to the present invention with respect to the arthritis was evaluated by using footpad volume increase suppression rate as an indicator. Eight-week old female Lewis rats were used in the experiment.
Heat killed Mycobacterium butyricum was ground in an agate mortar, then suspended in dry heat sterilized liquid paraffin so as to have a concentration of 2 mg/ml, and treated with sonication to prepare an adjuvant.
The test compound was suspended or dissolved in a 0.5% tragacanth solution. As the test compound, the compound of Compound No. 1 described in Table 1 was used as the amino alcohol derivative, and the compound of the formula (II) was used as the PPAR regulator.
0.05 ml of the adjuvant prepared in (1) was injected subcutaneously into the footpad of right hind leg of rats, with respect to a control group and a test compound administration group. Here, 5 rats were used for each group. In addition, a normal control group was provided as a group without injection of the adjuvant.
The test compound prepared in (2) was orally administrated once a day in the amount of 5 ml/kg, […]. The control group was administered with only the 0.5% tragacanth solution in a similar manner.
After the start of administration, on day 11 and day 18, the volume of the right hind leg was measured by a leg volume measuring device, and the mean value of the swelling volume was calculated for each group.
The footpad volume increase suppression ratio (%) was calculated by the following equation, and evaluated.
Footpad volume increase suppression ratio (%)=(1-([footpad volume of test compound administration group]-[footpad volume of normal control group])/[footpad volume of control group]−[footpad volume of normal control group]))×100

With `Cn1c(CC[C@@](C)(N)CO)ccc1C(=O)CCCCc1ccccc1` [Compound No. 1] the “Footpad volume increase suppression ratio (%) After 11 days” value was 43.0% and the “Footpad volume increase suppression ratio (%) After 18 days” value was 44.8%.
For `COc1ccc2nc(COc3ccc(CC4SC(=O)NC4=O)cc3)n(C)c2c1.Cl` (stereo not shown) [Formula (II), 5-[4-(6-methoxy-1-methyl-1-H-benzimidazol-2-ylmethoxy)benzyl]thiazoline-2,4-dione hydrochloride], the “Footpad volume increase suppression ratio (%) After 11 days” value was 24.7% and the “Footpad volume increase suppression ratio (%) After 18 days” value was 30.1%.
